Paper PMC165446 (BMC Microbiology, 2003)

Target: T1, methionine adenosyltransferase (MAT; S-adenosylmethionine synthetase) (Mycolicibacterium smegmatis, UniProt A0QWT3)
T1 sequence (A0QWT3 1-399): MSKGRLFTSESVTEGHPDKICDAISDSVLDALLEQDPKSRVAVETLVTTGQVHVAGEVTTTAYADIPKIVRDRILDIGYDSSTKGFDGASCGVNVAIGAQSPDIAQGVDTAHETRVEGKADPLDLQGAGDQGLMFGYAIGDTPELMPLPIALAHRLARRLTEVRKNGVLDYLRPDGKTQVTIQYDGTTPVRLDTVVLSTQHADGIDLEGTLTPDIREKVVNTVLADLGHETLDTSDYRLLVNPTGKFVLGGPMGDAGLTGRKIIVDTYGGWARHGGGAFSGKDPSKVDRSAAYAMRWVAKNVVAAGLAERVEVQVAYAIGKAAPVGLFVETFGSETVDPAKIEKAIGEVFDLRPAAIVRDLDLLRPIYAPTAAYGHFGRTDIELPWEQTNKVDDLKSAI
Assay: HPLC assay of SAM formation, Dixon plots with varied ATP
Assay type: biochemical

Row | Compound | Ki [mM]
1 | Nc1nc2nn[nH]c2c(=O)[nH]1 [8-azaguanine] | 4.7 ± 0.77
2 | Cn1cnc([N+](=O)[O-])c1Sc1ncnc2nc[nH]c12 [azathioprine] | 3.74 ± 1
